Reference: patent US8394799B2, “Compounds that inhibit HIF-1 activity, the method for preparation thereof and the pharmaceutical composition containing them as an effective component” (Korea Research Institute of Bioscience and Biotechnology, priority 2006, dated 2013)

Assays:
[1] = test system: HIF-1; test: HRE reporter assay, HIF activity % remaining, AGS cells; type: cell-based, human; settings: summary in words of the data of Table 1 and Table 2; cell line not stated
Text: (§1) Six tandem repeats of HRE (hypoxia Responsive Element 5′-ACGTG-3′), which is present in a human VEGF gene, was inserted into the multi-cloning region of a pGL3-basic vector (Promega) containing a luciferase gene as a reporter gene to produce a recombinant pGL3-HRE-luciferase vector which was then used to assay the compounds prepared in the above Examples for inhibition activity against HIF-mediated transcriptional activity.
The hepatocellular carcinoma cell line HepG2 or Hep3B, both available from ATCC (American Type Culture Collection), and the gastric carcinoma cell line AGS, available from ATCC, were grown at 70% confluency in culture dishes and co-transfected with an internal control vector (pRL-CMV, Promega) and the recombinant pGL3-HRE-luciferase vector using Lipofectamine Plus Reagent (Invitrogen). HepG2 and AGS cells were treated with the compound of Chemical Formula 1A while Hep3B and AGS cells were treated with the compound of Chemical Formula 1B. The compound of Chemical Formula 1A was used in a concentration of 10 μm for HepG2 or AGS cells. The compound of Chemical Formula 1B was used in a concentration of 30 μM for Hep3B and in a concentration of 10 μM for AGS cells. […] The compounds prepared in Examples above were assayed for inhibition activity against HIF-1 by measuring the activity of the luciferase, induced in hypoxia, using a Dual-luciferase reporter assay system (Promoga). In this regard, the luciferase activity was measured for 10 sec using a Microlumat Plus luminometer (EG&G Berthold). In the meanwhile, the renilla luciferase activity from the control vector PRL-CMV (Promega) was measured to normalize the data obtained.
On the basis of the renilla luciferase activity, the HIF activity % remaining after treatment with the compounds was corrected.

[2] = test system: metastatic breast carcinoma cell line MDA-MB-435; test: In vivo anticancer activity in nude mice implanted with MDA-MB-435; settings: for inhibition of the growth of the cancer cells compared to the control: once a day, MDA-MB-435 in nude mice; for deaths in six mice of each group: mouse, in vivo
Text: Female nude mice 5-6 weeks old (Crj:BALB/c nu/nu, Charles River) were bred in germ-free breeding rooms maintained at constant temperature and humidity. The nude mice were anesthetized before incision of the chest skin. The metastatic breast carcinoma cell line MDA-MB-435, obtained from DR D. R. Welch, Univ. Alabama, was implanted at a count of 10^6 cells/mouse into the mammary gland fat pad, and the incisions were then closed with surgical clips. The nude mice were divided into test groups and a control group, each consisting of 6 mice. […] For the control group, Solution A alone was used at a dose of 100 μl once a day. Thereafter, tumor volumes and body weights were measured once a week. Tumor volumes were calculated according to the following Mathematic Formula 1. Tumor Volume (mm^3)=(Length of Long Axis,mm)×(Length of Short Axis,mm)^2×0.5 <Mathematic Formula 1>

[3] = test system: HIF-1; test: Assay of IC50, AGS cells (HRE-luciferase transfected); type: cell-based; settings: Homo sapiens
Text: as §1

[4] = Acute toxicity, single oral administration in mice; settings: mouse, in vivo, 300 mg/kg
Method: An acute cytotoxicity assay was conducted with five-week-old SPF C57BL/6 mice (Samtako BioKorea) as follows.

[5] = test system: EPO or VEGF; test: Expression of EPO or VEGF, target genes of HIF-1, in hypoxia (RT-PCR); type: cell-based, human; settings: RT-PCR, 0, 1, 3 and 10 μM, 12 hrs in 1% O2, FIG. 3
Text: The inhibitory effect of the compounds of the present invention on HIF-1 activity was confirmed by assaying the compounds prepared in Examples for inhibition activity on the expression of EPO or VEGF, a representative target gene of HIF-1 through an analysis of RT-PCR (reverse transcriptase polymerase chain reaction). VEGF, a target gene of HIF-1, encodes an angiogenesis factor playing a pivotal role in the growth and metastasis of cancer and EPO is a hematosis hormone gene, and both genes have been known for being deeply related to the development and the aggravation of cancer. The compounds of the present invention were measured for inhibition of VEGF expression in AGS, Hep3B and HepG2 cells. In this regard, the hepatocellular carcinoma cell line Hep3B was treated with compounds prepared in Examples 18 and 126 as follows.
After being grown to 70% confluency in culture dishes, HepG2 cells (American Type Culture Collection) were treated with various concentrations (0 μm, 1 μm 3 μM and 10 μm) of compounds prepared in Examples 18, 44, 113 or 126 and incubated for 12 hrs in hypoxia (1% O2, 94%, N2, and 5% CO2, expressed as ‘1% O2’ in FIG. 2). Total RNA was isolated using an RNA Mini kit (Qiagen). From the total RNA (2 μg) thus obtained, cDNA was synthesized using an RT-PCR kit (Invitrogen), and was used to amplify EPO or VEGF by PCR in the presence of EPO or VEGF-specific primers. EPO or VEGF expression was quantitatively analyzed by running the PCR products on agarose gel. As an internal control, GAPDH was simultaneously amplified so as to analyze the selective inhibition of each compound for VEGF. Base sequences of primers used for the amplification of EPO, VEGF and GAPDH used in the present invention were as follows.

[6] = test system: HIF-1; test: Assay of IC50, Hep3B cells (HRE-luciferase transfected); type: cell-based; settings: Homo sapiens
Text: as §1

[7] = test system: HIF-1; test: Assay of IC50, SK-Hep-1 cells (same manner); type: cell-based; settings: Homo sapiens, SK-HEP1; SK-Hep-1 cell line, compounds 0.01 to 100 μM for 16 hrs
Text: as §1

Compound	inhibition activity against the transcription mediated by HIF-1, induced in hypoxia [1]	inhibition of the growth of the cancer cells compared to the control ([2]; 20 mg/kg) [%]	inhibition of the growth of the cancer cells compared to the control ([2]; 50 mg/kg) [%]	deaths in six mice of each group [2]	IC50 [3] [µM]	toxicity (death, clinical syndromes, body weight, autopsy) [4]	expression of EPO or VEGF in hypoxia [5]	IC50 [6] [µM]	IC50 [7] [µM]
COC(=O)c1ccc(O)c(NC(=O)COc2ccc(C34CC5CC(CC(C5)C3)C4)cc2)c1 [Example 18, 3-[2-(4-Adamantan-1-yl-phenoxy)acetyl-amino]-4-hydroxy benzoic acid methyl ester]	excellent inhibition activity	46.5	64.6	No dead were observed	0.7	no toxicity	inhibit the expression of EPO or VEGF dose-dependently	2.6	
O=C(COc1ccc(C23CC4CC(CC(C4)C2)C3)cc1)Nc1cccc(C(=O)O)c1 [Example 44, 3-[2-(4-Adamantan-1-yl-phenoxy)-acetylamino]-benzoic acid]	excellent inhibition activity				2.5		inhibit the expression of EPO or VEGF dose-dependently	5	
NC(=O)c1ccnc(NC(=O)COc2ccc(C34CC5CC(CC(C5)C3)C4)cc2)c1 [Example 113, 2-[2-(4-adamantan-1-yl-phenoxy)acetylamino]-isonicotinamide]	excellent inhibition activity						inhibit the expression of EPO or VEGF dose-dependently		0.59
COC(=O)c1ccc2[nH]c(COc3ccc(C45CC6CC(CC(C6)C4)C5)cc3)nc2c1 [Example 126, 2-(4-adamantan-1-yl-phenoxymethyl)-1H-benzoimidazole-5-carboxylic acid methyl ester]	excellent inhibition activity	53	58.6	No dead were observed		no toxicity	inhibit the expression of EPO or VEGF dose-dependently		
